Tests used:
[1] = test system: AGS cell line (human gastric cancer cells); assay: Cell-protecting effect in AGS cells (Helicobacter, sulindac, H2O2, ethanol; MTT); assay type: cell-based; conditions: most cell death models
Experimental: (§1) FIG. 3 is results showing cell-protecting effect of compound 2 on gastric mucous membrane damage induced by Helicobacter. Helicobacter (43504, 5×10^6 cfu/ml) was administered to cultured AGS (human gastric cancer) cell, alone or with sample having indicated concentration. MTT analysis method was used to evaluate the survival rate of gastric mucous membrane cell 24 hours after administration.
as §1, with “4” for “3”, “sulindac, a NSAID. 100 uM of sulindac” for “Helicobacter. Helicobacter (43504, 5×10^6 cfu/ml)”, “AGS” for “AGS (human gastric cancer)”, “16” for “24”
FIG. 5 is results showing cell-protecting effect of compound 2 on gastric mucous membrane damage induced by H2O2, oxidative stress. Cultured AGS cell was treated with 100 uM of H2O2 for 8 hours, alone or with sample having indicated concentration, and was washed with culture medium. MTT analysis method was used to evaluate the survival rate of gastric mucous membrane cell 24 hours later. […]
Cell-protecting effect of the 2-hydroxybenzoic acid derivative of the present invention was evaluated. […] After than, the absorbance was analyzed by ELISA reader at 540 nm, and the survival rate of gastric mucous membranes cell was calculated.

[2] = test system: brain-blood vessel barrier; assay: Brain-blood vessel barrier protection in APP/PS1 mice (Evans blue); assay type: in vivo, mouse; conditions: chow from 2 to 5 month-old; compound 2 25 mg/kg/day, ibuprofen 62.5 mg/kg/day
Experimental: Damage of brain blood vessel is well known in Alzheimer's disease. […] of 2% Evans blue dye was administered into blood vessel of 5 month-old APP/PS1 dementia mouse.

[3] = test system: IL-6 production in BV2 cell line; assay: Suppressing effect on production of cytokine (ELISA), IL-6; assay type: cell-based; conditions: Mus musculus, BV-2, level in medium, LPS + 100 uM of sample, 24 hours
Experimental: (§2) Effects of the 2-hydroxybenzoic acid derivatives on production of cytokine in BV2 cell line were evaluated. 24-well plate was inoculated with 1×10^6 cells of BV2 cell line, and treated with both LPS, inflammation-inducing material, and 100 uM of sample (the 2-hydroxybenzoic acid derivative or comparative drug), together. After 24 hours of incubation, culture medium was collected. The levels of cytokines, TNF-α and IL-6, in the medium were evaluated by ELISA method.

[4] = test system: TNF-alpha in exudation of air pouch; assay: Zymosan air pouch inflammation model, TNF-alpha (ELISA); assay type: in vivo; conditions: over 30 mg/kg, once oral 1 hour before zymosan, 4 hours later
Experimental: (§3) FIG. 12 is results showing efficacy of compound 2 through the levels of TNF-alpha induced by zymosan, one of arthritis animal models. 1% zymosan was administered with air pouch, and compound 2 was once orally administered according to indicated dose 1 hour before administration of zymosan. The level of TNF-alpha in an exudation of air pouch was evaluated by ELISA method 4 hours later.
(§4) Anti-inflammation effect of compound 2 in arthritis model was evaluated with zymosan. 0.5 ml of 1% zymosan was administered with air pouch, and 3-300 mg/kg of compound 2 was once orally administered 1 hour before administration of zymosan. Edema, a main symptom of arthritis, and the level of cytokine were observed 4 hours later.

[5] = test system: IL-1beta gene expression in BV2 cell line; assay: Suppressing effect on gene expression (RT-PCR), IL-1beta; assay type: cell-based; conditions: Mus musculus, BV-2, 24 h, gene expression vs LPS control, BV2, 24 hours
Experimental: Effects of the 2-hydroxybenzoic acid derivatives on iNOS gene expression in BV2 cell line were evaluated. 100 mm dish was inoculated with 1×10^6 cells of BV2 cell line, and treated with both LPS, inflammation-inducing material, and 1˜100 uM of the 2-hydroxybenzoic acid derivative of the present invention, together, in regular concentration interval. After 24 hours of incubation, RNA was extracted. Extracted RNA was used in reverse transcription and polymerase chain reaction, and expression patterns of TNF-alpha, IL-1beta and iNOS were compared.

[6] = test system: TNF-α production in BV2 cell line; assay: Suppressing effect on production of cytokine (ELISA), TNF-α; assay type: cell-based; conditions: Mus musculus, BV-2, level in medium, LPS + 100 uM of sample, 24 hours
Experimental: as §2

[7] = test system: microglia in lumbar ventral horn; assay: Microglia activation in G93A ALS mouse (TOMATO Lectin); assay type: in vivo; conditions: 5 mg/kg/day
Experimental: G93A (Glycine ? Alanine) transgenic mouse having similar pathophysiological characteristics with ALS (amyotrophic lateral sclerosis) human patient was used to evaluate therapeutic effect of drug in ALS, one of main degenerative brain diseases.
Activation degree of microglia (a marker of inflammation in brain disease model) expressed in the lumbar ventral horn of G93A mouse were evaluated with TOMATO Lectin dye. In G93A mouse, microglia was more activated compared to the wild type mouse.

[8] = test system: IL-1alpha in exudation of air pouch; assay: Zymosan air pouch inflammation model, IL-1alpha (ELISA); assay type: in vivo; conditions: 3-300 mg/kg once oral 1 hour before zymosan, 4 hours later
Experimental: as §3, with “13” for “12”, “graphs” for “results”, “how much” for “efficacy of”, “decreases” for “through”, “level” for “levels”, “IL-1alpha” for “TNF-alpha”
as §4

[9] = Single-dose toxicity test; assay type: in vivo; conditions: mouse, in vivo; single dose
Experimental: FIG. 32 is results of single dose toxicity testing of some 2-hydroxybenzoic acid derivatives according to the present invention.
Single-dose toxicities of the 2-hydroxybenzoic acid derivatives were evaluated.

SMILES: O=C(O)c1cc(NCCc2ccc(C(F)(F)F)cc2)ccc1O [compound 2, 2-hydroxy-5-[2-(4-trifluoromethyl-phenyl)-ethylamino]-benzoic acid]
- cell-protecting effect ([1]; 1 uM and 10 uM): more than 50%
- cell-protecting effect ([1]; 100 uM): more than 70%
- protecting effect on brain-blood vessel barrier [2]: protecting effects on brain-blood vessel barrier were shown
- inhibition at 100 µM [3]: 70.3%
- level of TNF-alpha [4]: decreased the level of TNF-alpha more than control
- inhibition at 100 µM [5]: 75.1%
- inhibition at 100 µM [6]: 62.3%
- number and activation degree of microglia [7]: decreased the number and activation degree of microglia
- level of IL-1alpha [8]: decreased in a dose-dependent manner
- LD50 [9]: > 3000 mg/kg

— US8598383B2, “Pharmaceutical composition for treating or preventing degenerative and inflammatory diseases” (Neurotech Pharmaceuticals Co., Ltd., priority 2006, dated 2013)
